The assay addresses AMPK. Kind of assay: AMPK activation, enzyme-linked immunosorbent assay. The assay is classed as biochemical. Particulars: Table 13, compounds of Table 6. A digest of the protocol:
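Read-out: ELISA, used to detect compound-driven activation of AMPK.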
Compound `N#Cc1ccc(CN2CCC(NC(=O)c3cc4cc(NC(=O)c5cnn(Cc6ccc(C#N)cc6)c5)ccc4o3)CC2)cc1` [Compound 6-73, 1-(4-cyanobenzyl)-N-(2-(1-(4-cyanobenzyl)piperidin-4-ylcarbamoyl)benzofuran-5-yl)-1H-pyrazole-4-carboxamide] came in with a half-maximal effective concentration (EC50) of 1000 to 10000 nM.

Compound `N#Cc1ccc(CN2CCC(NC(=O)c3cc4cc(NC(=O)C5CN(c6ccc(C#N)cc6)C5)ccc4o3)CC2)cc1` [Compound 6-74, N-(2-(1-(4-cyanobenzyl)piperidin-4-ylcarbamoyl)benzofuran-5-yl)-1-(4-cyanophenyl)azetidine-3-carboxamide] had a half-maximal effective concentration (EC50) of 100 to 1000 nM.

Take `N#Cc1ccc(CN2CCC(NC(=O)c3cc4cc(NC(=O)C5CCN(c6ccc(C#N)cc6)CC5)ccc4o3)CC2)cc1` [Compound 6-76, N-(2-(1-(4-cyanobenzyl)piperidin-4-ylcarbamoyl)benzofuran-5-yl)-1-(4-cyanophenyl)piperidine-4-carboxamide]: the EC50 is < 100 nM.

Consider `N#Cc1ccc(CN2CCC(NC(=O)c3cc4cc(C(=O)N5CCN(Cc6cnn(-c7ccc(C#N)cc7)c6)CC5)ccc4o3)CC2)cc1` [Compound 6-77, N-(1-(4-cyanobenzyl)piperidin-4-yl)-5-(4-((1-(4-cyanophenyl)-1H-pyrazol-4-yl)methyl)piperazine-1-carbonyl)benzofuran-2-carboxamide], for which the EC50 is < 100 nM.

Regarding `N#Cc1ccc(CN2CCC(NC(=O)c3cc4cc(C(=O)N5CCN(Cc6ccc(-n7cccn7)cc6)CC5)ccc4o3)CC2)cc1` [Compound 6-79, 5-(4-(4-(1H-pyrazol-1-yl)benzyl)piperazine-1-carbonyl)-N-(1-(4-cyanobenzyl)piperidin-4-yl)benzofuran-2-carboxamide], the EC50 was < 100 nM.

As to `N#Cc1ccc(CN2CCC(NC(=O)c3cc4cc(C(=O)N5CCN(Cc6ccc(N7CCCC7)cc6)CC5)ccc4o3)CC2)cc1` [Compound 6-80, N-(1-(4-cyanobenzyl)piperidin-4-yl)-5-(4-(4-(pyrrolidin-1-yl)benzyl)piperazine-1-carbonyl)benzofuran-2-carboxamide], the concentration giving a half-maximal response (EC50) is < 100 nM.

As for `N#Cc1ccc(CN2CCC(NC(=O)c3cc4cc(C(=O)N5CCN(Cc6ccc(OC(F)(F)F)cc6)CC5)ccc4o3)CC2)cc1` [Compound 6-81, N-(1-(4-cyanobenzyl)piperidin-4-yl)-5-(4-(4-(trifluoromethoxy)benzyl)piperazine-1-carbonyl) benzofuran-2-carboxamide], the EC50 was < 100 nM.

Regarding `N#Cc1ccc(CN2CCC(NC(=O)c3cc4cc(C(=O)N5CCN(Cc6ccc(-c7ccccn7)cc6)CC5)ccc4o3)CC2)cc1` [Compound 6-82, N-(1-(4-cyanobenzyl)piperidin-4-yl)-5-(4-(4-(pyridin-2-yl)benzyl)piperazine-1-carbonyl)benzofuran-2-carboxamide], the EC50 is < 100 nM.

Take `N#Cc1ccc(CN2CCC(NC(=O)c3cc4cc(NC(=O)C5CCN(c6ccc(C(F)(F)F)cc6)CC5)ccc4o3)CC2)cc1` [Compound 6-83, N-(2-(1-(4-cyanobenzyl)piperidin-4-ylcarbamoyl)benzofuran-5-yl)-1-(4-(trifluoromethyl)phenyl) piperidine-4-carboxamide]: the EC50 was in the range of 1000 to 10000 nM.

On to `CS(=O)(=O)c1ccc(N2CCC(C(=O)Nc3ccc4oc(C(=O)NC5CCN(Cc6ccc(C#N)cc6)CC5)cc4c3)CC2)cc1` [Compound 6-84, N-(2-(1-(4-cyanobenzyl)piperidin-4-ylcarbamoyl)benzofuran-5-yl)-1-(4-(methylsulfonyl)phenyl) piperidine-4-carboxamide], for which the concentration giving a half-maximal response (EC50) is < 100 nM.

The compound `CS(=O)(=O)c1ccc(C(=O)Nc2ccc3oc(C(=O)NC4CCN(Cc5ccc(C#N)cc5)CC4)cc3c2)cc1` [Compound 6-85, N-(1-(4-cyanobenzyl)piperidin-4-yl)-5-(4-(methylsulfonyl)benzamido) benzofuran-2-carboxamide] returned an EC50 of 1000 to 10000 nM.

For the origin of these results see patent US9409884B2 (Rigel Pharmaceuticals, Inc., priority 2012, dated 2016).
